Measurements from publication PMC10458824, “Identification of Xanthine Oxidase Inhibitors from Celery Seeds Using Affinity Ultrafiltration–Liquid Chromatography–Mass Spectrometry” (Molecules, 2023).
“And” between values parts separate entries of the source, which are not always exact repeats. Equal values may be shown once.

Assays:
Xanthine oxidase (XOD) = target: T1, Xanthine oxidase (XOD) (Bos taurus, UniProt P80457); test: XOD activity assay (absorbance at 290 nm, xanthine substrate); format: biochemical; settings: XOD 0.02 U/mL, xanthine 0.48 mM, 37 °C, OD 290 nm; read-out: IC50 of XOD inhibition
T1 construct: purchased Sigma-Aldrich Co., Ltd. (St. Louis, MO, USA)
T1 sequence (P80457 whole entry): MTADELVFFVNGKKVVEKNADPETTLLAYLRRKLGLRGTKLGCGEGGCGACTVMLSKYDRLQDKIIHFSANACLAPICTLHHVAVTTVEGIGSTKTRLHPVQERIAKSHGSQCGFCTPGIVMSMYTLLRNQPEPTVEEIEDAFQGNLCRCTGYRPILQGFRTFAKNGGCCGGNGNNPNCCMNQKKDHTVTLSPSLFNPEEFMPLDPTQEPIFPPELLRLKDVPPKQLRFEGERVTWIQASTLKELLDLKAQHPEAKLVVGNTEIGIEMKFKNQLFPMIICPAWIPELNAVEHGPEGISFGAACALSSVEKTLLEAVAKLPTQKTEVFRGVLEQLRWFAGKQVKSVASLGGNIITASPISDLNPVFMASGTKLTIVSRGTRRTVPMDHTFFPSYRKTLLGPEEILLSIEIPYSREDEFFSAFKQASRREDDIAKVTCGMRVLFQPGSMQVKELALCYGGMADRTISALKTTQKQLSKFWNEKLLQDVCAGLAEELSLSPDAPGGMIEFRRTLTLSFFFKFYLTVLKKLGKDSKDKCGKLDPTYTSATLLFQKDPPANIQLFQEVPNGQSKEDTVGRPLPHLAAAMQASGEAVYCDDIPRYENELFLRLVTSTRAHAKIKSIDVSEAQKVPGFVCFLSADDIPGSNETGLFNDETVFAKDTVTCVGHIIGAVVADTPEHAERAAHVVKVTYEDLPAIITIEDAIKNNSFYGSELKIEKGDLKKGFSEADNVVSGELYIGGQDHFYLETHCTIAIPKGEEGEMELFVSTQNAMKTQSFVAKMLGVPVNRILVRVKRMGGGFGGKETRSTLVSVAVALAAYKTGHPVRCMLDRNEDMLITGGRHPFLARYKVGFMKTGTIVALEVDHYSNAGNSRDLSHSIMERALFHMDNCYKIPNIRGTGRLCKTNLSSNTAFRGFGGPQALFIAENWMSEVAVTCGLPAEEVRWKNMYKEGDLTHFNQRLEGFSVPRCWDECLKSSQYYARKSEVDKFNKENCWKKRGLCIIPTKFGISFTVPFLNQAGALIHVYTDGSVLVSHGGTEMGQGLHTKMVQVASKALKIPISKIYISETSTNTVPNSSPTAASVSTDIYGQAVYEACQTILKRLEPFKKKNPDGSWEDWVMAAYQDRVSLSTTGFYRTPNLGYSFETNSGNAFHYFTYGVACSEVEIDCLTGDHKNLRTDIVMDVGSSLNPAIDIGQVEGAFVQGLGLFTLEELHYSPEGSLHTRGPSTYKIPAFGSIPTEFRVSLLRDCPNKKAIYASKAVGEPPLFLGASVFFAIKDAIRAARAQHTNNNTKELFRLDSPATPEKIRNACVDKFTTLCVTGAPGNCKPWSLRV
Experimental: The inhibitory effects of compounds were determined in the XOD activity assay according to a previous report with minor modifications. Celery seed extracts or the “hit” compounds from the UF–LC–MS screening assay were dissolved in PBS and prepared for a series of test solutions using 2-fold serial dilutions. Test solutions (50 μL) were mixed with XOD (50 μL at 0.02 U/mL) and incubated at 37 °C for 5 min. This was followed by the addition of XOD substrate xanthine (150 μL at 0.48 mM) and further incubation at 37 °C for 30 min. The optical density (OD) of each tube was then measured at 290 nm. Percent XOD inhibition was calculated using the following formula: %=1−A1−A2/A3−A4×100 where A1 was the absorbance of the production with the sample and XOD, A2 was the absorbance of the production with the sample, A3 was the absorbance of the production with PBS and XOD, and A4 was the absorbance of the production with PBS.

[1] = target: T2, Xanthine oxidase (XOD), febuxostat binding domain (Bos taurus, UniProt P80457); test: Affinity ultrafiltration LC-MS (UF-LC-MS) screening, febuxostat-masked vs unmasked XOD; settings: peak area with vs without febuxostat preincubation of XOD; extract 2 mg/mL
T2 construct: purchased Sigma-Aldrich Co., Ltd. (St. Louis, MO, USA)
T2 sequence (P80457 whole entry, the tested form may be a part): as the sequence (P80457 whole entry) above
Experimental: Based on the variation in the chromatogram with and without febuxostat binding in the XOD, the binding degree was used to evaluate the febuxostat competitive capacity of compounds in celery seeds. The binding degree (BD) was calculated as follows: BD(%)=Af−Ano_f/Af×100%
Af and Ano_f represent the peak area of compounds in the chromatogram with and without preincubation with febuxostat, respectively.
Identification of potential XOD inhibitors from celery seed extract was performed using UF–LC–MS according to a previous study with modification. To prepare the XOD interaction solution, 250 μL of XOD (0.5 U/mL) was incubated with 50 μL of febuxostat (the XOD inhibitor, 500 μg/mL in 10% DMSO-PBS, masked group) to mask the druggable binding domain of XOD or 10% DMSO-PBS (vehicle control, unmasked group) at 37 °C for 45 min. The extract (50 μL at 2 mg/mL in methanol) was then added to the interaction solution for a further 45 min. After incubation, the mixtures were transferred to a 10 kDa molecule weight cut-off ultrafiltration filter and centrifuged at 14,500 rpm for 20 min. The membrane was washed 3 times with 450 μL ddH2O to remove the unbound molecules. […] The elution solution was then ultrafiltered in the new filter units as described above. The final products in the bottom of the filter units were analyzed using a HPLC–MS system.

Compound | IC50 (Xanthine oxidase (XOD)) | binding degree (BD) [1]
O=c1cc(-c2ccc(O)c(O)c2)oc2cc(O[C@@H]3O[C@H](CO)[C@@H](O)[C@H](O)[C@H]3O[C@@H]3OC[C@](O)(CO)[C@H]3O)cc(O)c12 [Compound 9, Luteolin 7-O-apiosylglucoside] | 3140 µM | 89.1%
O=c1cc(-c2ccc(O)c(O)c2)oc2cc(O[C@@H]3O[C@H](CO)[C@@H](O)[C@H](O)[C@H]3O)cc(O)c12 [Compound 10, Luteolin 7-O-glucoside] | 976 µM | 95.9%
CCCC[C@H]1OC(=O)C2=C1CC[C@H](O)[C@H]2O [Compound 11, Senkyunolide J] | – | 50.5%
C[C@@]1(O)CO[C@@H](O[C@H]2[C@H](Oc3cc(O)c4c(=O)cc(-c5ccc(O)c(O)c5)oc4c3)O[C@H](COC(=O)CC(=O)O)[C@@H](O)[C@@H]2O)[C@@H]1O [Compound 14, Luteolin 7-O-malonyl-apiosylglucoside] | – | 93.6%
O=C(O)CC(=O)OC[C@H]1O[C@@H](Oc2cc(O)c3c(=O)cc(-c4ccc(O)c(O)c4)oc3c2)[C@H](O)[C@@H](O)[C@@H]1O [Compound 15, Luteolin 7-O-6′-malonyl glucoside] | 2020 µM | 99.0%
COc1cc(-c2cc(=O)c3c(O)cc(OC4OC(COC(=O)CC(=O)O)C(O)C(O)C4OC4OCC(O)(CO)C4O)cc3o2)ccc1O (stereo not drawn) [Compound 20, Chrysoeriol 7-O-6″-malonyl apiosylglucoside] | – | 52.0%

Other lines, results leading:

IC50 (Xanthine oxidase (XOD)) | binding degree (BD) [1] | Compound
– | 63.2% | O=C(O)CC(=O)OC[C@H]1O[C@@H](Oc2cc(O)c3c(=O)cc(-c4ccc(O)cc4)oc3c2)[C@H](O[C@@H]2OC[C@](O)(CO)[C@H]2O)[C@@H](O)[C@@H]1O [Compound 19, 6″-Malonylapiin]
69.2 µM | 97.8% | O=c1cc(-c2ccc(O)c(O)c2)oc2cc(O)cc(O)c12 [Compound 21, Luteolin]
93 µM and 92.6 µM | 95.5% | O=c1cc(-c2ccc(O)cc2)oc2cc(O)cc(O)c12 [Compound 24, Apigenin]
– | 96.7% | COc1cc(-c2cc(=O)c3c(O)cc(O)cc3o2)ccc1O [Compound 25, Chrysoeriol]
